Reference: publication PMC4125160, “Neurotoxicity and Mode of Action of N, N-Diethyl-Meta-Toluamide (DEET)” (PLoS ONE, 2014)
Read-outs that look alike come from different tables or passages of the source.

How the values were obtained:
[1] = tested on: octopamine receptors of Sf21 cells; assay: Calcium fluorescence assay in Sf21 cells; assay type: cell-based; settings: 100 µM
Method: The Sf21 insect cell line was obtained from a commercial supplier (Invitrogen, Carlsbad, CA, USA) and maintained in log phase culture in Trichoplusia ni Medium-Formulation Hink (TNM-FH) from Sigma-Aldrich (St. Louis, MO, USA), supplemented with 10% fetal bovine serum and 100 U/ml penicillin and streptomycin (Sigma-Aldrich). Cells were cultured in a non-humidified environment and maintained at 27°C. Sf21 cells were passaged every 3–5 days according to manufacturer's instructions, and maintained for about 30 passes before being replaced by fresh cells.
Sf21 cells were plated into 96-well black-wall, clear bottom plates 24 h before calcium fluorescence assay. […] The octopamine receptor antagonist phentolamine (100 µM) was co-incubated with cells for 1 h before drug challenge. Phentolamine, octopamine, and DEET were dissolved in water, while propoxur was dissolved in 100% DMSO to make a stock solution, and in the assay, DMSO was kept to 0.1%. The experiment was repeated in triplicate with different plates of cells to obtain means and SEMs for each experimental condition.

[2] = tested on: housefly larval central nervous system; assay: Neurophysiological recordings of CNS nerve discharge in housefly larvae; design: species or system Musca domestica; settings: for EC50: Musca domestica
Method: Neurophysiological recordings were performed on the central and peripheral nervous systems of larval Musca domestica. Glass pipette electrodes were pulled from borosilicate glass capillaries on a P-1000 Flaming/Brown micropipette puller (Sutter Instrument, Novato CA, USA). For CNS recordings, it was first excised from the larvae and placed in a separate dish with physiological saline (200 µL) containing: 157 mM NaCl, 3 mM KCl, 2 mM CaCl2, and 4 mM HEPES, pH = 7.25. The CNS was manually transected posterior to the cerebral lobes to disrupt the blood-brain barrier and enhance chemical penetration. Any convenient peripheral nerve trunks were pulled into a recording suction electrode. Amplification and digitization of descending electrical activity originating from the CNS were converted on-line into a rate plot, expressed in Hz (MacLab analog to digital converter hardware and LabChart 7 software, ADInstruments, Colorado Springs, CO, USA). […] After a baseline was established, the CNS preparation was directly exposed to test compound by adding 200 µL of solution to the bath containing 200 µL of saline. The final concentration of solvent in the bath was 0.1% DMSO. Each concentration was recorded for 3–5 min prior to the addition of the next drug concentration. […] Each drug concentration was replicated 3-5 times.

firefly light organ = assay: In vivo assay for effects on firefly light organ; design: species or system Photinus pyralis
Method: Adult firefly beetles (Photinus sp.) were collected locally (Nashville, TN) and housed in well-ventilated chambers with tree leaves. The animals had free access to 10% sucrose solution. Chemicals were dissolved in absolute ethanol and 1 µL was topically applied directly to the ventral light organ with the use of a manual pipettor. Prior to DEET application, the beetles were immobilized with molten parafilm and were mounted on corrugated cardboard for the duration of the study. Due to the time required for bioactivation of CDM, insects were treated with 1 µL of CDM and were released back into the holding chamber for three hours. After three hours, they were mounted in the previously described manner and monitored for activation of the lantern. Photographs were captured with a handheld camera (Canon PowerShot SX110 IS). Pictures were captured within five minutes, four hours, and 10 minutes post application for DEET, CDM, and propoxur, respectively. DEET- and propoxur-treated insects were monitored for at least 1 hour post exposure to ensure the response was not slow acting. The original photographs were cropped and background shadows were enhanced to increase detail of the insect using Adobe Photoshop PS5 (Adobe Systems, San Jose, CA, USA). The color or brightness of the light organ was not manipulated in any way during post-processing of the image.

acetylcholinesterase = assay: AChE inhibition, Ellman assay, summary statements across enzymes; assay type: biochemical; settings: abstract
Excerpt: In vitro biochemical assays utilized five acetylcholinesterase (AChE) enzymes. Recombinant human AChE (hAChE) was purchased from a commercial source (lyophilized powder, Sigma C1682, St. Louis, MO, USA). Homogenates to prepare Anopheles gambiae AChE (AgAChE) were obtained from the wild type G3 strain and the resistant AKRON strain (BEI Resources; http://www.beiresources.org/). AKRON mosquitoes (from Benin and donated by M. Akogbeto) have both knockdown resistance (kdr) to pyrethroids (L1014F sodium channel mutation) and the G119S AChE mutation (ace-1R), which confers resistance to carbamates, [15]. Both strains were cultured in the Emerging Pathogens Institute, University of Florida, Gainesville, FL, USA from eggs provided by the Center for Disease Control, Atlanta, GA, USA. Homogenates were also used to prepare Aedes aegypti AChE (AeAChE) from mosquitoes provided by the CMAVE, USDA-ARS, Gainesville, FL, USA; Musca domestica AChE (MdAChE) from flies cultured in the Department of Entomology and Nematology, Medical Entomology Laboratory, University of Florida, Gainesville, FL, USA); and Drosophila melanogaster AChE (DmAChE) from flies (Oregon-R strain) cultured in the Emerging Pathogens Institute, University of Florida, Gainesville, FL, USA. Homogenate enzymes were prepared from groups of ten non-blood fed adult female mosquitoes, five whole bodied Drosophila, or three Musca heads homogenized in 1 mL of ice-cold sodium phosphate buffer (0.1 M sodium phosphate, pH 7.8) with an electric motor driven glass tissue homogenizer. The homogenate was centrifuged at 5000×g using a Sorvall Fresco refrigerated centrifuge at 4 °C for 5 minutes. […]
Inhibition of AChE was determined using the Ellman assay and was based on the method outlined in Carlier et al.. […] Changes in absorbance were recorded by a DYNEX Triad spectrophotometer (DYNEX Technologies, Chantilly, VA, USA) at 405 nm. Enzyme concentrations used were within the linear range, therefore eliminating the need for protein quantification.

[3] = tested on: DmAChE, human AChE and butyrylcholinesterase; design: method as in PMID 19656357; settings: cited from earlier work
[4] = tested on: housefly larval central nervous system; assay: Neurophysiological recordings of CNS nerve discharge in housefly larvae; settings: Musca domestica; intact CNS; value (95% CI); read-out: EC50, excitation of nerve firing

Structure (SMILES) | effect on calcium fluorescence in words [1] | EC50 ([2]; Fig. 3C, read-out: EC50 for increasing spike frequency in the CNS) [µM] | lantern illumination (firefly light organ; 1 µg topically on light organ) | increase in calcium fluorescence ([1]; over control cells) | acetylcholinesterase inhibition (acetylcholinesterase; 10 mM) [%] | IC50 (acetylcholinesterase; Drosophila melanogaster, Musca domestica, and human acetylcholinesterases) [µM] | threshold concentration for neuroexcitation [2] | EC50 ([2]; abstract, read-out: EC50, excitatory effects) [µM] | concentrations showing inhibitory effects [3] [mM] | lantern illumination (firefly light organ; 5 µg topically on light organ) | period the lantern remained active (firefly light organ; 5 µg, majority of individuals) [s] | lantern illumination (firefly light organ; 1 and 2.5 µg topically on light organ) | interval of repeated activation of the lantern (firefly light organ; controls flashed every 45-90 seconds) [s] | EC50 [4] [µM]
CNC(=O)Oc1ccccc1OC(C)C [propoxur] | no effect | 0.344 | no changes in lantern illumination | – | – | – | – | – | – | – | – | – | – | –
CCN(CC)C(=O)c1cccc(C)c1 [DEET, N, N-diethyl-meta-toluamide] | – | – | – | ca. 30% | < 10 | 6000 to 12000 | about 50 µM | 120 | 0.1 to 10 | Bright and complete illumination of the lantern | 10 to 60 | Faint illumination in circumscribed areas of the lantern | 10 to 20 | 210
